The record followed here is publication PMC8282797, “Strictly regulated agonist-dependent activation of AMPA-R is the key characteristic of TAK-653 for robust synaptic responses and cognitive improvement” (Scientific Reports, 2021).

The target of the assay is GluA2o LBD (Homo sapiens, UniProt P42262). The assay can be described thus: SPA displacement of [3H]-HBT1 from His-tagged GluA2o LBD. The conditions noted are these: 40 nM [3H]-HBT1, 100 μM glutamate, read-out: IC50, inhibition of binding between [3H]-HBT1 and His-LBD. From the text: We previously reported that structural interference at Ser750 in the channel-closed state of GluA2o LBD might be involved in the molecular mechanisms underlying the lower agonistic effect of AMPA-R potentiators with dihydropyridothiadiazine 2,2-dioxide derivatives and discovered TAK-137, 9-(4-phenoxyphenyl)-3,4-dihydropyrido[2,1-c][1,2,4]thiadiazine 2,2-dioxide (Fig. 1A)[16]. […] TAK-653 bound to the intradimer interface formed by the ligand binding core (Fig. 1B). […] Binding affinity of TAK-653 to the GluA2o LBD was measured by a scintillation proximity assay (SPA) using [^3H]-HBT1, a radio-labeled LBD-binding AMPA-R potentiator, and a His-tagged GluA2o LBD protein (His-LBD)[21]. […] Binding of [^3H]-TAK-653 to His-LBD was also measured by SPA.
The SPA assays were performed as previously described, with some modifications. […] Radioactivity derived from the bound radio ligand was measured using a microplate scintillation counter (TopCount NXT, PerkinElmer Inc.).
In general terms: Displacement assays read how much labelled ligand stays bound in the presence of the test substance.

Sequence of GluA2o LBD (P42262 with tags, fused parts or gaps): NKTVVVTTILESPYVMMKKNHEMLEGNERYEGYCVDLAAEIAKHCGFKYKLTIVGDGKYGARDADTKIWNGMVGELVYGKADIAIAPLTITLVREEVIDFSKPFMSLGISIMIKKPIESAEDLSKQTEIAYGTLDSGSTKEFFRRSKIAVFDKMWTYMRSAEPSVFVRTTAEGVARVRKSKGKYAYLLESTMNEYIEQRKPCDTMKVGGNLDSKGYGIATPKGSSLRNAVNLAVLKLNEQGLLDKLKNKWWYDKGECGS

One may read the IC50 as the concentration that inhibits the measured activity by half. As to `CC1=CN2CCS(=O)(=O)N=C2C(c2ccc(OC3CCCCC3)cc2)=N1` [TAK-653, 9-[4-(Cyclohexyloxy)phenyl]-7-methyl-3,4-dihydropyrazino[2,1-c][1,2,4]thiadiazine 2,2-dioxide], the IC50 was determined as 260 nM.
